Laboratory results as given in patent US12552783B2, “Modulators of proteolysis and associated methods of use” (Arvinas Operations, Inc., priority 2018, dated 2026).

Molecular target: KRas (Homo sapiens, UniProt P01116, G12C)
Test: KRas degradation in SW1573 cells by Western blot, normalized to GAPDH (data of Table 14)
Format: cell-based
Settings: SW1573 cells
Procedure: Cell Lines, Antibodies, and Reagents. NCI-H2030 (CRL-5914) and SW1573 (CRL-2170) cells were purchased from ATCC. Both cell lines are homozygous for the G12C mutation in KRas. NCI-H2030 cells were cultured in RPMI-1640 medium containing 1% penicillin-streptomycin and 10% fetal bovine serum (FBS). SW1573 cells were cultured in DMEM containing 1% penicillin-streptomycin and 10% FBS. The KRas detection antibody (Cat. No. LS-C175665) was purchased from LifeSpan Biosciences and was used at a dilution of 1:2000. GAPDH was detected using an antibody purchased from Cell Signaling Technology (Cat. No. 5174) and was diluted 1:3000. Secondary anti-mouse and anti-rabbit detection antibodies were purchased from Cell Signaling Technology (Cat. Nos. 7076 and 7074, respectively).
Compound Treatment and Western Blotting of the Data of Table 14. Either NCI-H2030 or SW1573 cells were plated in 12-well plates and allowed to adhere overnight at 37° C. in an incubator containing 5% CO2. The following day, the medium was replaced with the appropriate medium lacking FBS to induce starvation. Cells were returned to the incubator for an additional 24 hours following media exchange. […] Cells were treated with VHL-based compounds for 24 hours and all other compounds for 72 hours. Following treatment, cells were lysed in RIPA buffer (Thermo Fisher Cat. No. 89900) containing phosphatase (Thermo Fisher Cat. No. 1861277) and protease (Thermo Fisher Cat. No. 78429) inhibitor cocktails. Lysates were cleared at 13,000 rpm for 15 minutes and supernatants were assayed for total protein concentration using the Pierce BCA assay system (Thermo Fisher Cat. No. 23225). For each sample, 10 μg total protein was resolved on a 12% Bis-Tris gel and then transferred to a nitrocellulose membrane. After blocking in 3% BSA in TBST (Tris-buffered Saline with 0.1% Tween-20) for 1 hour at room temperature, membranes were probed with the primary antibody (LS Bio Cat. No. LS-C175665) overnight at 4° C. After incubation with the secondary antibody, the following day membranes were visualized using the SuperSignal™ West Femto substrate (Thermo Fisher Cat. No. 34095). The KRas signal in each lane was normalized to GAPDH and percent degradation was either estimated as less than 25% by visual inspection (C in Table 13) or quantitated relative to the DMSO control lane using BIO-RAD Image Lab 5.2.1, and all data was plotted using GraphPad PRISM 6.07.
DC50 is the half-maximal degradation concentration—i.e., the concentration at which 50% degradation is observed. DMax is the maximum degradation efficacy is achieved—i.e., the maximal degradation observed) degradation data.

Percent Degradation at Indicated Concentration (μM) (0.3 μM) | Percent Degradation at Indicated Concentration (μM) (1 μM) | Percent Degradation at Indicated Concentration (μM) (3 μM) | Percent Degradation at Indicated Concentration (μM) (0.1 μM) | DC50 [nM] | Dmax [%] | Percent Degradation at Indicated Concentration (μM) (0.01 μM) | Percent Degradation at Indicated Concentration (μM) (0.03 μM) | Compound
C (Percent Degradation: C ≤ 35) | C (Percent Degradation: C ≤ 35) | C (Percent Degradation: C ≤ 35) | – | – | – | – | – | Cc1ncsc1-c1ccc([C@H](C)NC(=O)[C@@H]2C[C@@H](O)CN2C(=O)[C@@H](NC(=O)COCCOCCOCCOCCOC2CCN(C[C@@H](C)Oc3nc(N4CCN(C(=O)C(O)O)CC4)c4cc(Cl)c(-c5cc(O)cc6ccccc56)c(F)c4n3)CC2)C(C)(C)C)cc1 [compound 247, (2S,4R)-1-((2S)-2-(tert-butyl)-17-((1-((2R)-2-((6-chloro-4-(4-(2,2-dihydroxyacetyl)piperazin-1-yl)-8-fluoro-7-(3-hydroxynaphthalen-1-yl)quinazolin-2-yl)oxy)propyl)piperidin-4-yl)oxy)-4-oxo-6,9,12,15-tetraoxa-3-azaheptadecanoyl)-4-hydroxy-N-((S)-1-(4-(4-methylthiazol-5-yl)phenyl)ethyl)pyrrolidine-2-carboxamide]
C (Percent Degradation: C ≤ 35) | C (Percent Degradation: C ≤ 35) | – | C (Percent Degradation: C ≤ 35) | – | – | – | – | C=CC(=O)N1CCN(c2nc(O[C@H](C)CN3CCC(OCCOCCOCCOCCOCCNc4cccc5c4C(=O)N(C4CCC(=O)NC4=O)C5=O)CC3)nc3c2CCN(c2cc(O)cc4ccccc24)C3)CC1 (stereo partly shown) [compound 415]
C (Percent Degradation: C ≤ 35) | C (Percent Degradation: C ≤ 35) | – | C (Percent Degradation: C ≤ 35) | – | – | – | – | C=CC(=O)N1CCN(c2nc(OC[C@@H]3C[C@@H](OCCOCCOCCOCCOCC(=O)N[C@H](C(=O)N4C[C@H](O)C[C@H]4C(=O)N[C@@H](C)c4ccc(-c5scnc5C)cc4)C(C)(C)C)CN3C)nc3c2CCN(c2cccc4ccccc24)C3)C[C@@H]1CC#N [compound 480]
C (Percent Degradation: C ≤ 35) | C (Percent Degradation: C ≤ 35) | – | C (Percent Degradation: C ≤ 35) | 100 to 1000 | ≤ 35 | C (Percent Degradation: C ≤ 35) | C (Percent Degradation: C ≤ 35) | C=CC(=O)N1CCN(c2nc(O[C@H](C)CN(C)CCOCCOCCOCCOCC(=O)N[C@H](C(=O)N3C[C@H](O)C[C@H]3C(=O)N[C@@H](C)c3ccc(-c4scnc4C)cc3)C(C)(C)C)nc3c(F)c(-c4cc(O)cc5ccccc45)c(Cl)cc23)CC1 [compound 397, (2S,4R)-1-((2S,20R)-20-((4-(4-acryloylpiperazin-1-yl)-6-chloro-8-fluoro-7-(3-hydroxynaphthalen-1-yl)quinazolin-2-yl)oxy)-2-(tert-butyl)-18-methyl-4-oxo-6,9,12,15-tetraoxa-3,18-diazahenicosanoyl)-4-hydroxy-N-((S)-1-(4-(4-methylthiazol-5-yl)phenyl)ethyl)pyrrolidine-2-carboxamide]
C (Percent Degradation: C ≤ 35) | – | – | C (Percent Degradation: C ≤ 35) | – | – | – | C (Percent Degradation: C ≤ 35) | C=CC(=O)N1CCN(c2nc(O[C@H](C)CN3CCC(OCCOc4cc([C@@H](C(=O)N5C[C@H](O)C[C@H]5C(=O)N[C@@H](C)c5ccc(-c6scnc6C)cc5)C(C)C)on4)CC3)nc3c(F)c(-c4cc(O)cc5ccccc45)c(Cl)cc23)CC1 [compound 524, (2S,4R)-1-((2S)-2-(3-(2-((1-((2R)-2-((4-(4-acryloylpiperazin-1-yl)-6-chloro-8-fluoro-7-(3-hydroxynaphthalen-1-yl)quinazolin-2-yl)oxy)propyl)piperidin-4-yl)oxy)ethoxy)isoxazol-5-yl)-3-methylbutanoyl)-4-hydroxy-N-((S)-1-(4-(4-methylthiazol-5-yl)phenyl)ethyl)pyrrolidine-2-carboxamide]
C (Percent Degradation: C ≤ 35) | – | – | C (Percent Degradation: C ≤ 35) | – | – | – | C (Percent Degradation: C ≤ 35) | C=CC(=O)N1CCN(c2nc(O[C@H](C)CN3CCC(OCCOc4cc([C@H](C(=O)N5C[C@H](O)C[C@H]5C(=O)N[C@@H](C)c5ccc(-c6scnc6C)cc5)C(C)C)on4)CC3)nc3c(F)c(-c4cc(O)cc5ccccc45)c(Cl)cc23)CC1 [compound 525, (2S,4R)-1-((2R)-2-(3-(2-((1-((2R)-2-((4-(4-acryloylpiperazin-1-yl)-6-chloro-8-fluoro-7-(3-hydroxynaphthalen-1-yl)quinazolin-2-yl)oxy)propyl)piperidin-4-yl)oxy)ethoxy)isoxazol-5-yl)-3-methylbutanoyl)-4-hydroxy-N-((S)-1-(4-(4-methylthiazol-5-yl)phenyl)ethyl)pyrrolidine-2-carboxamide]
C (Percent Degradation: C ≤ 35) | C (Percent Degradation: C ≤ 35) | C (Percent Degradation: C ≤ 35) | – | – | – | – | – | Cc1ncsc1-c1ccc([C@H](C)NC(=O)[C@@H]2C[C@@H](O)CN2C(=O)[C@@H](NC(=O)COCCOCCOCCOC2CCN(C[C@@H](C)Oc3nc(N4CCN(C(=O)C(O)O)CC4)c4cc(Cl)c(-c5cc(O)cc6ccccc56)c(F)c4n3)CC2)C(C)(C)C)cc1 [compound 246, (2S,4R)-1-((2S)-2-(tert-butyl)-14-((1-((2R)-2-((6-chloro-4-(4-(2,2-dihydroxyacetyl)piperazin-1-yl)-8-fluoro-7-(3-hydroxynaphthalen-1-yl)quinazolin-2-yl)oxy)propyl)piperidin-4-yl)oxy)-4-oxo-6,9,12-trioxa-3-azatetradecanoyl)-4-hydroxy-N-((S)-1-(4-(4-methylthiazol-5-yl)phenyl)ethyl)pyrrolidine-2-carboxamide]
C (Percent Degradation: C ≤ 35) | C (Percent Degradation: C ≤ 35) | – | C (Percent Degradation: C ≤ 35) | – | – | – | – | C=CC(=O)N1CCN(c2nc(O[C@H](C)CN3CCC(OCCOc4ccc5c(c4)C(=O)N(C4CCC(=O)NC4=O)C5=O)CC3)nc3c(F)c(-c4cc(O)cc5ccccc45)c(Cl)cc23)CC1 (stereo partly drawn) [compound 426, 5-(2-((1-((2R)-2-((4-(4-acryloylpiperazin-1-yl)-6-chloro-8-fluoro-7-(3-hydroxynaphthalen-1-yl)quinazolin-2-yl)oxy)propyl)piperidin-4-yl)oxy)ethoxy)-2-(2,6-dioxopiperidin-3-yl)isoindoline-1,3-dione]
C (Percent Degradation: C ≤ 35) | C (Percent Degradation: C ≤ 35) | – | C (Percent Degradation: C ≤ 35) | – | – | – | – | C=CC(=O)N1CCN(c2nc(O[C@H](C)CN3CCC(OCCOc4cc(-c5scnc5C)ccc4CNC(=O)[C@@H]4C[C@@H](O)CN4C(=O)[C@H](c4cc(C)no4)C(C)C)CC3)nc3c2CCN(c2cc(O)cc4ccccc24)C3)CC1 [compound 437, (2S,4R)-N-(2-(2-((14(R)-2-((4-(4-acryloylpiperazin-1-yl)-7-(3-hydroxynaphthalen-1-yl)-5,6,7,8-tetrahydropyrido[3,4-d1pyrimidin-2-yl)oxy)propyl)piperidin-4-yl)oxy)ethoxy)-4-(4-methylthiazo1-5-yl)benzyl)-4-hydroxy-1-((S)-3-methyl-2-(3-methylisoxazol-5-yl)butanoyl)pyrrolidine-2-carboxamide]
C (Percent Degradation: C ≤ 35) | C (Percent Degradation: C ≤ 35) | – | C (Percent Degradation: C ≤ 35) | – | – | – | – | C=CC(=O)N1CCN(c2nc(O[C@H](C)CN3CCC(OCCOc4ccc5c(c4)CN(C4CCC(=O)NC4=O)C5=O)CC3)nc3c2CCN(c2cc(O)cc4ccccc24)C3)CC1 (stereo partly shown) [compound 421]
